Results: patent US20220409692A1, “Systems Chemico-Pharmacology Drugs and Methods of Use” (The Medical College of Wisconsin, priority 2019, published 2022)
“And” between values parts separate entries of the source, which are not always exact repeats. Equal values may be shown once. Read-outs that look alike come from different tables or passages of the source. Peptide text beside a SMILES is read from it.

Legend:
control mice = assay: Increasing single IP doses of KYC in control mice; assay type: in vivo, mouse; conditions: unpublished, personal observations
MPO = target: T1, MPO (Homo sapiens, UniProt P05164); assay: MPO oxidation of KYC to thiyl radical, ESR with DMPO; assay type: biochemical; conditions: MPO 120 nM, H2O2 50 μM, KYC 30 μM
T1 sequence (P05164 49-745): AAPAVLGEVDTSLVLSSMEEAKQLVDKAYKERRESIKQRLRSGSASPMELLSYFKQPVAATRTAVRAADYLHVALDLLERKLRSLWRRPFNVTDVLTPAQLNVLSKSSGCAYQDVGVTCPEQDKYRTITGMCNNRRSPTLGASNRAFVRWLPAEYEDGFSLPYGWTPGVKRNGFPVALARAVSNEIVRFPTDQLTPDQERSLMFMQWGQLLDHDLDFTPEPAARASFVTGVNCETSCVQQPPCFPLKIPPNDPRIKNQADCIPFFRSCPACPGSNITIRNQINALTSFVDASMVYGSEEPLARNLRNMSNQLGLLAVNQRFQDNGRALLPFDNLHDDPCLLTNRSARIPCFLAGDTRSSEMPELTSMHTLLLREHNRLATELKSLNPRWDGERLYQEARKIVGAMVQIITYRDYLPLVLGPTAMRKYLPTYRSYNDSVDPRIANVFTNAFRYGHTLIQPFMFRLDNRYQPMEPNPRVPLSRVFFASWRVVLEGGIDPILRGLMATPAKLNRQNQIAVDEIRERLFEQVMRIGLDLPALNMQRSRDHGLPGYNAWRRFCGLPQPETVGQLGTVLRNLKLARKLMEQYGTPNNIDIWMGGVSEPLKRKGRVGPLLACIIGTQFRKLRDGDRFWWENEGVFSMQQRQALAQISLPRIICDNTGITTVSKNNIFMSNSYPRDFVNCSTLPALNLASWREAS
Method: FIG. 30. MPO Oxidizes KYC to a KYC Thiyl Radical That Thiylates HMGB1. (A) ESR spectrum of KYC thiyl S°-DMPO generated by an MPO reaction mixture containing MPO (120 nM), H2O2 (50 μM) and KYC (30 μM). (B) Streptavidin-affinity blot of KYC thiylated HMGB1 and MPO in a split sample, one half treated neat and other half treated with DTT (100 mM) to reduce disulfide bonds.
This spectrum is similar to the spectrum of DMPO-S◯-YC generated when the dipeptide YC was added to an MPO reaction mixture containing DMPO [34].

neonatal rat pups = assay type: in vivo; conditions: for weight gain: P3-P10
Method: Data from lung sections and immunoblots from the samples were analyzed for statistical differences using GraphPad Prism version 8.4.3, for Windows (GraphPad Software, La Jolla, Calif.). Quantitative morphometric and cell count data are expressed as mean±SD scatter-plots adjacent to the representative images. Student t-test, or Mann-Whitney U test, was used for comparing two groups wherever appropriate. One-way analysis of variance with post-hoc Student-Newman-Keuls test was used when more than two groups of data were analyzed. Significant differences between groups were determined by either unpaired student's t-test or Mann-Whitney U test, depending on the distribution. Weight gain and survival data were analyzed using MedCalc Statistical Software version 15.2.1 (MedCalc Software bvba, Ostend, Belgium; http://www.medcalc.org). Kaplan-Meier survival curves were plotted using Kaplan-Meier tables constructed in GraphPad Prism. A p-value<0.05 was considered statistically significant.

[1] = normoxic pups, KYC vs untreated

CC(=O)N[C@@H](CCCCN)C(=O)N[C@@H](Cc1ccc(O)cc1)C(=O)N[C@@H](CS)C(N)=O [KYC, N-acetyl lysyltyrosylcysteine amide] (Ac-Lys-Tyr-Cys-NH2)
single dose at which observable adverse effects were induced (control mice): 800 mg/kg | ESR spectrum of MPO reaction mixture with DMPO (MPO): four-line ESR spectrum corresponding to DMPO-SO-KYC | survival rate at P10 (neonatal rat pups; hyperoxic (>90% O2) neonatal rat pups, KYC 5 mg/kg twice per day i.p., PBS group 82.8%): 97.3% and ~98% | survival to P10 (survival analysis) (neonatal rat pups; hyperoxic pups, KYC vs PBS): higher probability of surviving to P10 | weight gain (neonatal rat pups; hyperoxic pups, KYC vs PBS): time-dependent changes in weight gain were not significantly different | survival to P10 (neonatal rat pups; [1]): no significant differences in survival | weight gain (neonatal rat pups; [1]): gained more weight than untreated normoxic pups
